Test results from patent publication US12570603B2, “FABP4/5 inhibitors, methods of use and methods of making” (Novius Therapeutics, LLC, priority 2021, dated 2026).

Legend:
[1] = test system: MB-231 shC and shF5 cells; assay: Proliferation assay, MB-231 lines expressing control shRNA (shC) or FABP5 shRNA (shF5); assay type: cell-based; conditions: MB-231 shC vs shF5, different concentrations
Protocol: (§1) 2000 cells were plated in each well of 96-well plate. The next day cells were treated with compounds and incubated in Incucyte for 4 days. Images taken every 4 hours for the duration of the time were analyzed to calculate percentage of confluency in response to the treatments. Growth inhibition was calculated as 1−(percentage of viable cells out of untreated cells).

PPARδ = assay: Transactivation assay, PPRE luciferase reporter in COS-7 cells; assay type: cell-based
Protocol: (§2) COS-7 were cultured in 6-well plates and co-transfected with either a luciferase reporter driven by 3 copies of a PPRE and expression vector for either PPARδ, PPARα or PPARγ together with a vector harboring cDNA for β-galactosidase, serving as a transfection control. To test whether FABP4 or FABP5 mediate activation of their cognate receptors PPARγ and PPARδ, respectively, cells were also co-transfected with a plasmid harboring sequence of either FABP4 or FABP5. 18 h post-transfection, cells were placed in a serum-free medium and treated with agonist/compound. 18 h. later, cells were lysed, luciferase activity was assayed (Promega, WI, USA) and corrected for transfection efficiency by the activity of β-galactosidase.
(§3) COS-7 were cultured in 6-well plates and co-transfected with either a luciferase reporter driven by 3 copies of a PPRE and expression vector for either PPARδ, PPARα or PPARγ together with a vector harboring cDNA for β-galactosidase, serving as a transfection control. 18 h. post-transfection, cells were placed in a serum-free medium and treated with agonist/compound. 18 h. later, cells were lysed, luciferase activity was assayed (Promega, WI, USA) and corrected for transfection efficiency by the activity of β-galactosidase.

PPARγ = assay: as above; assay type: cell-based; conditions: for activation of transcription by PPARγ: tested against rosiglitazone, FIG. 4; for activation of PPARγ: 5 μM, COS7 cells, FIG. 36C
Protocol: as §2, §3

PPARα = target: T1, PPARα (Homo sapiens, UniProt Q07869); assay: as above; assay type: cell-based
T1 construct: expressed in transfected cells; host or cells: COS-7
Protocol: as §2, §3

[2] = test system: FABP5 together with PPARδ; assay: Transcriptional activation assay in cells overexpressing FABP5, with PPARδ activator GW0742; assay type: cell-based; conditions: together with GW0742, FIG. 8
Protocol: as §2

[3] = test system: PPARδ targets PDPK1 and CD47 in TNBC cells MB-231; assay: Real-time PCR of PPARδ targets; assay type: cell-based; conditions: MB-231, 1 μM, 6 hours
Protocol: (§4) Cells were treated with a compound for 6 h. then lysed and RNA was extracted using Trizol, according to the manufacturer's instructions. cDNA was generated using GeneAmp RNA PCR (Applied Biosystems). qPCR was carried out using TaqMan chemistry and Assays-on-Demand probes (Applied Biosystems). 18s (4352930) rRNA was used for normalization. Relative expression was calculated as 2^−ΔΔCT.

[4] = test system: PPARδ targets PDPK1 and CD47 in TNBC cells MB-157; assay: Real-time PCR of PPARδ targets; assay type: cell-based, human; conditions: MB-157, 1 μM, 6 hours
Protocol: as §4

[5] = test system: FABP4 together with PPARγ; assay: Transcriptional activation assay in cells overexpressing FABP4, with PPARγ activator rosiglitazone; assay type: cell-based; conditions: FIG. 7
Protocol: as §2

TNBC lines and MCF7 = assay: Proliferation assay in multiple TNBC lines and MCF7, MB-231 shF5 as control; assay type: cell-based
Protocol: as §1

FABP5 = target: T2, FABP5 (Homo sapiens, UniProt Q01469); assay: FABP binding assay by fluorescence titration (ANS competition); conditions: fluorescence competition with ANS; read-out: FABP5 binding
T2 construct: made in house
Protocol: (§5) This example illustrates a binding assay study used to determine the binding affinity of the various inhibitor compounds disclosed herein with the various FABPs: FABP3, FABP4, FABP5 and FABP7.
(§6) Binding assays for FABP3, FABP4, FABP5 and FABP7 were carried out by fluorescence titrations. FABPs were bacterially expressed and purified and the equilibrium dissociation constants (Kd) that characterize their interactions with different compounds were measured by fluorescence competition assays. The method entails two steps as described in e.g., Lin, Q. et al., “Ligand selectivity of the peroxisome proliferator-activated receptor alpha,” Biochemistry 38, 185-190, doi:10.1021/bi9816094 bi9816094 [pii](1999). In the first step, Kd for the association of the protein with the fluorescent fatty acid probe ANS was measured. Protein ([…]) was titrated with ANS from a concentrated solution in DMSO. Ligand binding was monitored by following the increase in the fluorescence of the ligand upon binding to the protein, and Kd for the association of ANS with the each FABP was computed from titration curves as described in e.g., Norris, A. W. & Li, E., “Fluorometric titration of the CRABPs,” Methods Mol Biol 89, 123-139 (1998)). Kds for binding of non-fluorescent ligands were then measured by monitoring their ability to displace ANS in the binding pocket of the protein. Each FABP was pre-complexed with ANS at 1:1 molar ratio and titrated with the different compounds whose binding was reflected by a decrease in probe fluorescence. Kds were extracted from the EC50 of the competition curve and the measured Kd for ANS.
(§7) Binding assays for FABP3, FABP4, FABP5 and FABP7 were carried out by fluorescence titrations as described in Example 16.

FABP4 = target: T3, FABP4 (Homo sapiens, UniProt P15090); assay: as above; conditions: fluorescence competition with ANS; read-out: FABP4 binding
T3 construct: made in house
Protocol: as §5, §6, §7

[6] = test system: NPG human neuroblastoma cells; assay: Neuroblastoma proliferation assay with or without all-trans retinoic acid; assay type: cell-based; conditions: for proliferation of neuroblastoma cells in combination with atRA: combined with atRA; for proliferation of neuroblastoma cells: compound alone, 4 days
Protocol: (§8) COS-7, MDA-MB-231, HepG2, LX-2, 3T3-L1, NPG, and MCF7 were cultured in Dulbecco's modified Eagle's medium (DMEM) supplemented with 10% fetal bovine serum (Invitrogen Life Sciences, Carlsbad, CA). MDA-MB-157 and MB-549 cells were cultured in L-Glutamine containing RPMI medium supplemented with 10% fetal calf serum (Invitrogen Life Sciences, Carlsbad, CA). For proliferation assays, 2000 cells were plated in each well of 96-well plate. The next day cells were treated with compounds and incubated in Incucyte for 4 days. Images taken every 4 hours for the duration of the time were analyzed to calculate percentage of confluency in response to the treatments.
Activation of PPARβ by atRA shifts the signaling of this vitamin from its cognate receptor RAR that is known to have anti-carcinogenic activities in multiple cancers to the pro-carcinogenic PPARβ. […] Accordingly, NB, human NPG cells were used to test the effect of FABP5 inhibitors on cells' proliferation in combination with atRA. Cells were treated with either B104 or B108 in the presence or absence of atRA.

MB-231 cells = assay: Proliferation assay (Incucyte confluency, 4 days); assay type: cell-based; conditions: MB-231, serial dilution
Protocol: as §8
The TNBC line MB-231 was used to calculate the efficacy of compounds B104, B106, B110, B116, and B118 in inhibiting proliferation of the cancer cells. Cells were treated with serial dilution of the compounds or the known FABP5/7 inhibitor SBF-I26 and proliferation was measured in Incucyte by calculating percentage of confluency every 4 hours over 4 days. […] The EC50 for each compound was calculated by fitting the percentage of inhibition vs. the logarithmic transformation of the used concentrations (FIG. 37B and FIG. 37D). Additionally, the effect of B116 and B118 was also tested on proliferation of the human TNBC lines MDA-MB-157 (FIG. 37E) and MB-549 (FIG. 37F).

T2 sequence (Q01469 whole entry, species assumed): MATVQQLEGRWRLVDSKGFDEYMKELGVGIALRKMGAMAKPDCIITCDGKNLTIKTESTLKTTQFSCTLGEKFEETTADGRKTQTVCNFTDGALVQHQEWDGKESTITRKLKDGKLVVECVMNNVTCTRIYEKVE
T3 sequence (P15090 whole entry, species assumed): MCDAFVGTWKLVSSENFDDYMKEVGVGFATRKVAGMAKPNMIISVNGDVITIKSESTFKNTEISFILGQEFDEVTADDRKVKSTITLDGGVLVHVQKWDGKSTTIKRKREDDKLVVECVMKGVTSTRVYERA
T1 sequence (Q07869 whole entry, species assumed): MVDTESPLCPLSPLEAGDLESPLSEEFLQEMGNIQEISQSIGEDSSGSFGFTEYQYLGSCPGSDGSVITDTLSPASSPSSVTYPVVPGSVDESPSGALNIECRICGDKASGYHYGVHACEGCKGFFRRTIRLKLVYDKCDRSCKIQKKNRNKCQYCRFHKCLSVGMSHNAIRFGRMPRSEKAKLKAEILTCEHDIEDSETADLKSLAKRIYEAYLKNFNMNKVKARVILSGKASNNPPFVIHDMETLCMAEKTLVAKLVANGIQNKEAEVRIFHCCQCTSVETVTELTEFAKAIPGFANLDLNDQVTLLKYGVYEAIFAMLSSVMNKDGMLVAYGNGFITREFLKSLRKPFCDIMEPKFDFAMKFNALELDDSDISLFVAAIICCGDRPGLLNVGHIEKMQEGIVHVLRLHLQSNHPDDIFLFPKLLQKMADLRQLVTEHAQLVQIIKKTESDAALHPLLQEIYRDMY

## O=C(O)CSCC(=O)Nc1cc(OCc2ccccc2)c(Cl)cc1Cl [Compound B7]
[1]
  TNBC cell growth, shC versus shF5: suppressed TNBC cell growth only in the cells highly expressing FABP5
PPARδ; compared to GW0742, FIG. 5
  activation of transcription by PPARδ: did not active transcription
PPARγ
  activation of transcription by PPARγ: did not activate transcription
PPARα; compared to WY-14643, FIG. 6
  activation of PPARα: activate PPARα
[2]
  inhibition of PPARδ activity in cells overexpressing FABP5: inhibit activity of the nuclear receptors only in cells that express the binding proteins
[3]
  levels of endogenous PPARδ targets PDPK1 and CD47: significantly lower
[4]
  levels of endogenous PPARδ targets PDPK1 and CD47: significantly lower
[5]
  inhibition of PPARγ activity in cells overexpressing FABP4: inhibit activity of the nuclear receptors only in cells that express the binding proteins
TNBC lines and MCF7
  growth inhibition of TNBC lines by FABP5 level: inhibited growth of only TNBC lines expressing high FABP5 levels

## C#CCOc1cc(NC(=O)CSCC(=O)O)c(Cl)cc1Cl [Compound B9]
[1]
  TNBC cell growth, shC versus shF5: suppressed TNBC cell growth only in the cells highly expressing FABP5
PPARδ; compared to GW0742, FIG. 5
  activation of transcription by PPARδ: did not active transcription
PPARγ
  activation of transcription by PPARγ: did not activate transcription
[2]
  inhibition of PPARδ activity in cells overexpressing FABP5: inhibit activity of the nuclear receptors only in cells that express the binding proteins
[3]
  levels of endogenous PPARδ targets PDPK1 and CD47: significantly lower
[4]
  levels of endogenous PPARδ targets PDPK1 and CD47: significantly lower
[5]
  inhibition of PPARγ activity in cells overexpressing FABP4: inhibit activity of the nuclear receptors only in cells that express the binding proteins
TNBC lines and MCF7
  growth inhibition of TNBC lines by FABP5 level: inhibited growth of only TNBC lines expressing high FABP5 levels

## CC(C)Oc1cc(NC(=O)CSC(C)C(=O)O)c(Cl)cc1Cl (centres unmarked) [Compound B102, 2-((2-((2,4-dichloro-5-isopropoxyphenyl)amino)-2-oxoethyl)thio)propanoic acid]
FABP5
  Kd: 6 nM
FABP4
  Kd: 116 nM

## CC(C)Oc1cc(NC(=O)CSC(C)(C)C(=O)O)c(Cl)cc1Cl [Compound B104, 2-((2-((2,4-dichloro-5-isopropoxyphenyl)amino)-2-oxoethyl)thio)-2-methylpropanoic acid]
PPARδ; 5 μM, COS7 cells, FIG. 36A
  activation of transcription by PPARδ: do not Activate Transcription
PPARγ
  activation of PPARγ: activate both PPARα and PPARγ
PPARα; 5 μM, COS7 cells, FIG. 36B
  activation of PPARα: activate both PPARα and PPARγ
[6]
  proliferation of neuroblastoma cells in combination with atRA: enhanced
  proliferation of neuroblastoma cells: significantly inhibited proliferation
MB-231 cells
  suppression of growth of TNBC cells compared with SBF-I26: Suppress Growth of TNBC Cells More Effectively than the Commercially Available Inhibitor SBF-I26
FABP5
  Kd: 7 nM
FABP4
  Kd: 97 nM

## CC(C)Oc1cc(NC(=O)C(C)SC(C)C(=O)O)c(Cl)cc1Cl (centres unmarked) [Compound B106, 2-((1-((2,4-dichloro-5-isopropoxyphenyl)amino)-1-oxopropan-2-yl)thio)propanoic acid]
FABP5
  Kd: 15 nM
FABP4
  Kd: 286 nM

## CC(C)Oc1cc(NC(=O)C2CCC(C(=O)O)S2)c(Cl)cc1Cl (centres unmarked) [Compound B108, 5-((2,4-dichloro-5-isopropoxyphenyl)-carbamoyl)tetrahydrothiophene-2-carboxylic acid]
PPARδ; 5 μM, COS7 cells, FIG. 36A
  activation of transcription by PPARδ: do not Activate Transcription
PPARγ
  activation of PPARγ: activated PPARγ
[6]
  proliferation of neuroblastoma cells in combination with atRA: enhanced
  proliferation of neuroblastoma cells: significantly inhibited proliferation
MB-231 cells
  suppression of growth of TNBC cells compared with SBF-I26: Suppress Growth of TNBC Cells More Effectively than the Commercially Available Inhibitor SBF-I26
FABP5
  Kd: 2 nM
FABP4
  Kd: 48 nM

## CC(C)Oc1cc(NC(=O)COCC(=O)O)c(Cl)cc1Cl [Compound B110, 2-(2-((2,4-dichloro-5-isopropoxyphenyl)amino)-2-oxoethoxy)acetic acid]
PPARδ; 5 μM, COS7 cells, FIG. 36A
  activation of transcription by PPARδ: do not Activate Transcription
MB-231 cells
  suppression of growth of TNBC cells compared with SBF-I26: Suppress Growth of TNBC Cells More Effectively than the Commercially Available Inhibitor SBF-I26
FABP5
  Kd: 15 nM
FABP4
  Kd: 242 nM

## CC(C)Oc1cc(NC(=O)C2CCC(C(=O)O)O2)c(Cl)cc1Cl (centres unmarked) [Compound B112, 5-((2,4-dichloro-5-isopropoxyphenyl)carbamoyl)tetrahydrofuran-2-carboxylic acid]
FABP5
  Kd: 15 nM
FABP4
  Kd: 116 nM

## CC(C)Oc1cc(NC(=O)CCCC(=O)O)c(Cl)cc1Cl [Compound B114, 5-((2,4-dichloro-5-isopropoxyphenyl)amino)-5-oxopentanoic acid]
FABP5
  Kd: 6 nM
FABP4
  Kd: 218 nM
